# Assays:
# [1] = test system: K562; assay: Antiproliferative activity against human K562 cells assessed as cell viability after 96 hrs by CellTiter96 assay; type: functional, cell-based; conditions: K562, 96 h
# [2] = test system: HeLa; assay: Antiproliferative activity against human HeLa cells assessed as cell viability after 96 hrs by CellTiter96 assay; type: functional, cell-based
# [3] = test system: MDA-MB-231; assay: Antiproliferative activity against human MDA-MB-231 cells assessed as cell viability after 96 hrs by CellTiter96 assay; type: functional, cell-based; conditions: MDA-MB-231, 96 h
# [4] = test system: MDA-MB-468; assay: Antiproliferative activity against human MDA-MB-468 cells assessed as cell viability after 96 hrs by CellTiter96 assay; type: functional, cell-based; conditions: MDA-MB-468, 96 h
# [5] = Solubility of the compound in phosphate buffered saline containing 1% DMSO at pH 7.4 after 2 hrs by HPLC analysis; type: physicochemical
Compound,IC50 [1] [nM],IC50 [2] [nM],IC50 [3] [nM],IC50 [4] [nM],solubility kinetic at 2 h [5] [µM]
COc1ccc(Oc2cc(C)c(-c3csc(NC(=O)c4ccncc4)n3)c(C)c2)cc1,34.9,48.6,32,37,
Cc1cc(Oc2ccc3c(c2)OCO3)cc(C)c1-c1csc(NC(=O)c2ccncc2)n1,45.7,106,68,128,
Cc1cc(C)c(-c2csc(NC(=O)c3ccccc3)n2)c(C)c1,3200,3600,3200,2200,
Cc1cc(C)c(-c2csc(NC(=O)c3ccncc3)n2)c(C)c1,,,,,3.33
Cc1cc(C)c(-c2csc(NC(=O)Cc3ccncc3)n2)c(C)c1,380,620,310,300,

# — ChEMBL document CHEMBL3259640 (J Med Chem, 2014)
